The subject of data set [1] is human insulin promoter in HIT-T15 β-cells. Description: Insulin promoter (phINS-Luc) dual luciferase assay in HIT-T15 β-cells. In kind it is cell-based, rat. The settings on record: FIG. 6C. As to the method: FIGS. 4A-C show an increase in insulin mRNA and protein content by cytopiloyne in pancreatic islet cells. (A) HIT-T15 β-cells transfected with phINS-Luc and pRL-TK plasmids were incubated with vehicle (NS), glimepiride (GLM, 10 μM), high glucose (HG, 16.7 mM) or cytopiloyne at 7, 14 or 28 μM. Ten μg of cell lysates from these cells underwent to dual luciferase assays. […] (C) Rat pancreatic islet cells were treated with vehicle, glucose (3.3 mM (LG) or 16.7 mM (HG)) or cytopiloyne (CP, 7, 14 and 28 μM) in the presence of brefeldin A for 24 h. After anti-insulin antibody staining, these cells underwent FACS analysis. The percentage of insulin-positive β-cells is shown. All the results from 3 independent experiments are expressed as mean±SEM, and P<0.05 was considered to be statistically significant (*).
(A) RIN-M5F cells were grown in medium with 16.7 mM (HG) or 3.3 mM glucose (LG) in the presence of PMA. GF and cytopiloyne. The insulin level of the supernatants was determined using an ELISA kit. (B) RIN-M5F cells were transfected with 5 μg of dominant-negative PKCα or control plasmid grown in medium with 16.7 mM (HG) or 3.3 mM glucose (LG) in the presence of PMA (1 μM), GF109203X (3 μM) or cytopiloyne. The insulin level of the supernatants was determined using an ELISA kit. (C) HIT-T15 cells were transfected with phINS-Luc and pRL-TK plasmids. The cells were grown in medium with 16.7 mM (HG) or 3.3 mM glucose (LG) in the absence or presence of PMA, GF109203X and cytopiloyne. The cell lysates were subjected to dual luciferase assays. (D) HIT-T15 cells were transfected with vehicle or dominant-negative PKCα plasmid together with phINS-Luc and pRL-TK plasmids. The cells were grown in medium with 16.7 mM (HG) or 3.3 mM glucose (LG) in the absence or presence of PMA and cytopiloyne. The cell lysates were subjected to dual luciferase assays.
Plasmids phINS-Luc and pRL-TK contain a human insulin promoter (2347 bp) from phINS-DCR3 vector linked to a firefly luciferase gene and the thymidine kinase promoter linked to Renilla luciferase reporter gene, respectively. Dominant-negative PKCα, phINS-Luc and/or pRL-TK were transfected into HIT-T15 cells with lipofectamine or electroporation.

For data set [2], the system named is HIT-T15 cells. The data set can be described thus: Insulin secretion of β-cell line with PMA, GF109203X and cytopiloyne (ELISA). In kind it is cell-based, rat. As to conditions: FIG. 6A.
The test system of data set [3] is RIN-m5F cells. The data set can be described thus: DAG and cholesterol generation (3H-myristic acid, TLC) in RIN-m5F cells. The format is cell-based, rat. The settings on record: versus vehicle control, glucose 16.7 mM. The protocol: (§1) FIGS. 5A-D show the effects of cytopiloyne on calcium mobilization, DAG generation and PKCa activation. (A) After Fura 2-AM loading, RIN-m5F cells were stimulated with 16.7 mM glucose (HG) and cytopiloyne at 7, 14 and 28 μM. Level of intracellular calcium, as shown by the 340/380 nm ratio, was detected using a fluorescence spectrophotometer. (B) RIN-m5F cells were pulsed with ^3H-myristic acid (5 Cim1^−1) for 16 hours. After washing, the cells were stimulated with glucose, cytopiloyne, PMA and glimepiride. Total lipids were separated on a silica thin layer plate. DAG and cholesterol were visualized with iodine vapor and identified by their standards. (C) RIN-m5F cells were incubated with vehicle (Mock), cytopiloyne (CP, 3, 7 and 14 μM), PMA (1 μM) and 16.7 mM (HG). Membrane or cytosolic proteins were subjected to Western blot with anti-PKCα and anti-Actin antibodies. (D) RIN-m5F cells were incubated with vehicle (Mock), cytopiloyne (CP 7 μM) and PMA (1 μM). After lysis, total lystaes were subjected to Western blot with anti-PKCα, anti-phospho-PKCα and anti-Actin antibodies.
RIN-m5F cells were incubated with ^3H-myristic acid ([…]) for 16 hours. After washing, the cells were treated with glucose, cytopiloyne, PMA and glimepiride. Total lipids were extracted as previously described. Radioactive DAG was separated on a silica thin layer plate with the first developer of ethylacetate: acetic acid: triethylpentane (9:2:5) and the second developer of hexane: diethylether: methanol: acetic acid (90:20:3:2). The spot of DAG was visualized with iodine vapor and identified by DAG standard.

Data set [4] relates to PKCα. Description: PKCα translocation and phosphorylation (Western blot) in RIN-m5F cells. The format is cell-based, rat. The settings on record: PMA 1 μM, glucose 16.7 mM. As to the method:
as §1

For data set [5], the system named is STZ-treated C57BL mice. Description: Insulin sensitizer test: oral dose before insulin injection in STZ-treated C57BL mice. In kind it is in vivo, mouse. As to conditions: cytopiloyne 0.5 and 2.5, glimepiride 2.5, metformin 60 mgkg^−1 oral; insulin 2.5 IUkg^−1. The protocol:
(§2) FIGS. 3A-C show cytopiloyne-mediated insulin release depends on pancreatic islet cells. (A) Rat pancreatic islet cells were incubated with glucose-free KRB buffer containing vehicle or cytopiloyne at 1.5, 3, 7, 14, 28 and 42 μM (FIG. 3A-i). Similarly, rat pancreatic islet cells were incubated with KRB buffer containing vehicle, glimepiride (GLM, 10 μM) or cytopiloyne at 1.5, 3, 7, 14, 28 and 42 μM in the presence of 3.3 mM glucose (LG, FIG. 3A-ii) or 16.7 mM glucose (HG, FIG. 3A-iii). The insulin levels were determined using an insulin ELISA kit. The data presented as mean±SEM of 3 independent experiments. (B) Fed C57BL mice, which had already received an injection of STZ, were administered with an oral dose of vehicle, cytopiloyne (CP, 0.1, 0.5 and 2.5 mgkg^−1), and an intraperitoneal injection of insulin (Ins, 2.5 IUkg^−1). Blood sugar levels in the STZ-treated mice were determined using a glucometer. (C) C57BL mice, which had already received STZ, were orally administered with a single dose of vehicle, cytopiloyne (CP, 0.5 and 2.5 mgkg^−1), glimepiride (GLM, 2.5 mgkg^−1), or metformin (60 mgkg^−1), followed by an intraperitoneal injection with insulin (Ins). Blood sugar levels in the STZ-treated mice were determined using a glucometer. All the results from 3 independent experiments are expressed as mean±SEM, and P<0.05 was considered to be statistically significant (*). The number of mice (n) is indicated in parentheses.
To deplete pancreatic β-cells in mice, 6-week-old C57BL females (NLAC, Taipei, Taiwan) were intraperitoneally injected with STZ at 200 mgkg^−1. STZ-treated females with postprandial blood sugar over 500 mgdl^−1 were grouped. […] Blood glucose levels were monitored for 4 h. To distinguish sensitizer activity from releaser activity of cytopiloyne, STZ-treated C57BL mice were tube-fed with vehicle, glimepiride (2.5 mgkg^−1), metformin (60 mgkg^−1) or cytopiloyne (0.5 and 2.5 mgkg^−1) 1 h before insulin injection (2.5 IUkg^−1). Blood glucose levels in the mice were monitored from 0 to 4 h after insulin injection.

The test system of data set [6] is adipocyte protein 2 (aP2). The data set can be described thus: Real-time RT-PCR of aP2 mRNA relative to GAPDH in 3T3-L1 cells. In kind it is cell-based, mouse. The settings on record: mouse, 8 days, 1 μM.
Data set [7] relates to adiponectin. Description: Real-time RT-PCR of adiponectin mRNA relative to GAPDH in 3T3-L1 cells. The format is cell-based, mouse. The settings on record: mouse, 8 days, 1 μM.
The test system of data set [8] is β-cell line. The data set can be described thus: Insulin secretion in β-cell line (unpublished data). In kind it is cell-based.
For data set [9], the system named is STZ-treated C57BL mice. Description: Blood glucose in STZ-treated (β-cell-depleted) C57BL mice. In kind it is in vivo, mouse. As to conditions: cytopiloyne oral 0.1, 0.5 and 2.5 mgkg^−1; insulin i.p. 2.5 IUkg^−1. The protocol: as §2, with “(C) C57BL mice, which had already received STZ, were orally administered with a single dose of vehicle, cytopiloyne (CP, 0.5 and 2.5 mgkg^−1), glimepiride (GLM, 2.5 mgkg^−1), or metformin (60 mgkg^−1), followed by an intraperitoneal injection with insulin (Ins).” left out, “The number of mice (n) is indicated in parentheses.” left out
To deplete pancreatic β-cells in mice, 6-week-old C57BL females (NLAC, Taipei, Taiwan) were intraperitoneally injected with STZ at 200 mgkg^−1. […] Blood glucose levels were monitored for 4 h. […] Blood glucose levels in the mice were monitored from 0 to 4 h after insulin injection.

In the case of `CN(C)CCCn1cc(C2=C(c3c[nH]c4ccccc34)C(=O)NC2=O)c2ccccc21` [GF109203X], the “effect of PKC inhibitor on mediated insulin transcription” value in data set [1] (with cytopiloyne, glucose or PMA) is “completely abolished cytopiloyne-, glucose- and PMA-mediated insulin transcription”. In addition, the “effect of PKC inhibitor on induced insulin secretion” value in data set [2] (with cytopiloyne or PMA) is “inhibited cytopiloyne- and PMA-induced insulin secretion”.
As to `CCCCCCCCCCCCCC(=O)O[C@@H]1[C@@H](C)[C@@]2(O)[C@@H](C=C(CO)C[C@]3(O)C(=O)C(C)=C[C@@H]23)[C@@H]2C(C)(C)[C@]12OC(C)=O` [PMA, phorbol 12-myristate 13-acetate, reference compound], the “level of DAG” value in data set [3] was “significantly increased the level of DAG”. For the same compound, the “phosphorylation of PKCα” value in data set [4] (cytopiloyne 7 μM) is reported as “increased phosphorylation of PKCα”. Further, the “translocation of PKCα from cytoplasm to membrane” value in data set [4] (cytopiloyne 3, 7 and 14 μM) was “increased the translocation of PKCα from cytoplasm to membrane”. Also, the “insulin transcription in HIT-T15 cells” value in data set [1] (glucose 16.7 mM) was “stimulated insulin transcription”. Besides, the “insulin secretion in β-cell line” value in data set [2] (glucose 16.7 mM) is on record as “stimulated insulin secretion”.
Regarding `CN(C)C(=N)N=C(N)N` [metformin], in data set [5], the “blood sugar lowering when dosed 60 min before insulin injection” value is listed as “significantly reduced blood glucose levels”.
On to `CN(CCOc1ccc(CC2SC(=O)NC2=O)cc1)c1ccccn1` (stereo not shown) [rosiglitazone], for which the “aP2 expression, times of the control” value in data set [6] was 11 times. Further, in [7], the “adiponectin expression level, times control levels” value was found to be 21 times.
In the case of cytopiloyne aglycone, in data set [8], the “induction of insulin secretion relative to cytopiloyne” value is given as “less effective than cytopiloyne in inducing insulin secretion” and the “insulin secretion in β-cell line” value is listed as “did stimulate insulin secretion in β-cell line to some extent”.
As for “insulin: Insulin purchased from Novo Nordisk, injected intraperitoneally”, the “reduction of hyperglycemia / blood glucose in β-cell-depleted mice” value in [9] is reported as “still diminished blood glucose levels”.

Source of the values: patent US8575116B1, “Polyacetylenic compounds for protecting against pancreatic islet atrophy” (Academia Sinica, priority 2010, dated 2013).
